ChEMBL document CHEMBL1159108, “Synthesis and antimicrobial activity of 2-fluorophenyl-4,6-disubstituted [1,3,5]triazines” (2010)
Converted amounts (≈) assume the structure as drawn.

What was measured:
Candida albicans [1] = assay: Antifungal activity against Candida albicans ATCC 10231; format: functional
Candida albicans [2] = assay: Antifungal activity against Candida albicans ATCC 10231
[3] = tested on: Staphylococcus epidermidis; assay: Antibacterial activity against methicillin-sensitive Staphylococcus epidermidis ATCC 155-U; format: functional
Enterococcus faecium = assay: Antibacterial activity against vancomycin-resistant Enterococcus faecium ATCC 49624; format: functional
Bacillus cereus = assay: Antibacterial activity against Bacillus cereus ATCC 13061; format: functional
Staphylococcus aureus [4] = assay: Antibacterial activity against vancomycin-resistant Staphylococcus aureus; format: functional
Streptococcus pneumoniae [5] = assay: Antibacterial activity against multidrug-resistant Streptococcus pneumoniae; format: functional
Enterococcus faecalis = assay: Antibacterial activity against Enterococcus faecalis; format: functional
Streptococcus pneumoniae [6] = assay: Antibacterial activity against Streptococcus pneumoniae; format: functional
Staphylococcus warneri = assay: Antibacterial activity against coagulase negative-susceptible Staphylococcus warneri; format: functional
Cutibacterium acnes = assay: Antibacterial activity against Propionibacterium acnes; format: functional
Staphylococcus aureus [7] = assay: Antibacterial activity against methicillin-resistant Staphylococcus aureus; format: functional
Staphylococcus cohnii = assay: Antibacterial activity against coagulase negative-susceptible Staphylococcus cohnii; format: functional

SMILES | MIC (Candida albicans [1]) [µg/mL] | MIC (Candida albicans [2]) [µg/mL] | MIC [3] [µg/mL] | MIC (Enterococcus faecium) [µg/mL] | MIC (Bacillus cereus) [µg/mL] | MIC (Staphylococcus aureus [4]) [µg/mL] | MIC (Streptococcus pneumoniae [5]) [µg/mL] | MIC (Enterococcus faecalis) [µg/mL] | MIC (Streptococcus pneumoniae [6]) [µg/mL] | MIC (Staphylococcus warneri) [µg/mL] | MIC (Cutibacterium acnes) [µg/mL] | MIC (Staphylococcus aureus [7]) [µg/mL] | MIC (Staphylococcus cohnii) [µg/mL]
NCCCCCNc1nc(Nc2cccc(F)c2)nc(-c2cncc(F)c2)n1 | > 100 | > 100 | 32 (≈ 83 µM) | 32 (≈ 83 µM) | 32 (≈ 83 µM) | – | – | – | – | – | – | – | –
NCCCCCCNc1nc(Nc2cccc(F)c2)nc(-c2cccc(F)c2)n1 | 16 (≈ 40.2 µM) | 16 (≈ 40.2 µM) | 2 (≈ 5.02 µM) | 4 (≈ 10 µM) | 16 (≈ 40.2 µM) | – | – | – | – | – | – | – | –
NCCCCCNc1nc(Nc2ccc(F)cc2)nc(-c2cccnc2)n1 | > 100 | > 100 | 16 (≈ 43.5 µM) | > 100 | > 100 | – | – | – | – | – | – | – | –
NCCCCCNc1nc(Nc2cccc(F)c2)nc(-c2cc(F)cc(F)c2)n1 | 16 (≈ 39.8 µM) | 16 (≈ 39.8 µM) | 4 (≈ 9.94 µM) | 8 (≈ 19.9 µM) | 16 (≈ 39.8 µM) | – | – | – | – | – | – | – | –
CC(C)(CN)CNc1nc(Nc2cccc(F)c2)nc(-c2cccc(F)c2)n1 | 4 (≈ 10.4 µM) | – | 2 (≈ 5.2 µM) | 8 (≈ 20.8 µM) | 8 (≈ 20.8 µM) | – | – | – | – | – | – | – | –
Fc1cccc(Nc2nc(NC3CCCNC3)nc(-c3cccc(F)c3)n2)c1 (centres undefined) | 8 (≈ 20.9 µM) | 8 (≈ 20.9 µM) | 2 (≈ 5.23 µM) | 4 (≈ 10.5 µM) | 8 (≈ 20.9 µM) | – | – | – | – | – | – | – | –
CC1(C)CC(Nc2nc(Nc3cccc(F)c3)nc(-c3cccc(F)c3)n2)CC(C)(C)N1 | 32 (≈ 73 µM) | – | 2 (≈ 4.56 µM) | 4 (≈ 9.12 µM) | 4 (≈ 9.12 µM) | – | – | – | – | – | – | – | –
NCC1CCC(CNc2nc(Nc3cccc(F)c3)nc(-c3cccc(F)c3)n2)CC1 (centres undefined) | 64 (≈ 151 µM) | – | 8 (≈ 18.8 µM) | 8 (≈ 18.8 µM) | 8 (≈ 18.8 µM) | – | – | – | – | – | – | – | –
NCC1(CNc2nc(Nc3cccc(F)c3)nc(-c3cccc(F)c3)n2)CCCC1 | 8 (≈ 19.5 µM) | – | 16 (≈ 39 µM) | 32 (≈ 78 µM) | 32 (≈ 78 µM) | – | – | – | – | – | – | – | –
NCCCCCNc1nc(Nc2cccc(F)c2)nc(-c2cccc(O)c2)n1 | 32 (≈ 83.7 µM) | – | 8 (≈ 20.9 µM) | 8 (≈ 20.9 µM) | 8 (≈ 20.9 µM) | – | – | – | – | – | – | – | –
NCCCCCNc1nc(-c2cccc(F)c2)nc(-c2cccc(F)c2)n1 | 4 (≈ 10.8 µM) | – | 2 (≈ 5.41 µM) | 8 (≈ 21.7 µM) | – | – | – | – | – | – | – | – | –
NCCCCCNc1nc(NCCc2ccc(O)cc2)nc(-c2cccc(F)c2)n1 | > 100 | > 100 | 8 (≈ 19.5 µM) | 16 (≈ 39 µM) | 8 (≈ 19.5 µM) | – | – | – | – | – | – | – | –
NCCN(CCN)c1nc(NCCc2ccc(O)cc2)nc(-c2cccc(F)c2)n1 | > 100 | > 100 | 4 (≈ 9.72 µM) | 8 (≈ 19.4 µM) | 8 (≈ 19.4 µM) | – | – | – | – | – | – | – | –
NCCCCCNc1nc(NCCc2ccc(O)cc2)nc(-c2ccc(F)cc2)n1 | > 100 | > 100 | – | – | 4 (≈ 9.74 µM) | – | – | – | – | – | – | – | –
NCCCCCNc1nc(NCCc2ccc(O)cc2)nc(Nc2ccc(F)cc2)n1 | > 100 | > 100 | 64 (≈ 150 µM) | 128 (≈ 301 µM) | 16 (≈ 37.6 µM) | 64 (≈ 150 µM) | 64 (≈ 150 µM) | 128 (≈ 301 µM) | 64 (≈ 150 µM) | 64 (≈ 150 µM) | 32 (≈ 75.2 µM) | 128 (≈ 301 µM) | 32 (≈ 75.2 µM)
NCCCCCNc1nc(Nc2ccc(F)cc2)nc(-c2cccc(F)c2)n1 | 4 (≈ 10.4 µM) | – | 2 (≈ 5.2 µM) | 8 (≈ 20.8 µM) | 4 (≈ 10.4 µM) | – | – | – | – | – | – | – | –
NCCCCCNc1nc(Nc2cccc(F)c2)nc(-c2ccc(F)cc2)n1 | 4 (≈ 10.4 µM) | – | 2 (≈ 5.2 µM) | 8 (≈ 20.8 µM) | 4 (≈ 10.4 µM) | – | – | – | – | – | – | – | –
NCCCCCNc1nc(Nc2cccc(F)c2)nc(-c2ccccc2F)n1 | 16 (≈ 41.6 µM) | – | 4 (≈ 10.4 µM) | 8 (≈ 20.8 µM) | 64 (≈ 166 µM) | – | – | – | – | – | – | – | –
NCCCCCNc1nc(Nc2cccc(C(F)(F)F)c2)nc(-c2cccc(F)c2)n1 | 16 (≈ 36.8 µM) | – | 8 (≈ 18.4 µM) | 4 (≈ 9.21 µM) | 16 (≈ 36.8 µM) | – | – | – | – | – | – | – | –
NCCN(CCN)c1nc(NCCc2ccc(O)cc2)nc(-c2ccc(F)cc2)n1 | 32 (≈ 77.8 µM) | – | 8 (≈ 19.4 µM) | 16 (≈ 38.9 µM) | 16 (≈ 38.9 µM) | – | – | – | – | – | – | – | –
NCCCCCCCNc1nc(Nc2cccc(F)c2)nc(-c2cccc(F)c2)n1 | 64 (≈ 155 µM) | – | 8 (≈ 19.4 µM) | 16 (≈ 38.8 µM) | 16 (≈ 38.8 µM) | – | – | – | – | – | – | – | –
NCCCCCNc1nc(Nc2cccc(F)c2)nc(-c2cccc(F)c2)n1 | 8 (≈ 20.8 µM) | 8 (≈ 20.8 µM) | 8 (≈ 20.8 µM) | 4 (≈ 10.4 µM) | 8 (≈ 20.8 µM) | 8 (≈ 20.8 µM) | 8 (≈ 20.8 µM) | 8 (≈ 20.8 µM) | 8 (≈ 20.8 µM) | 4 (≈ 10.4 µM) | 16 (≈ 41.6 µM) | 8 (≈ 20.8 µM) | 2 (≈ 5.2 µM)
NCc1ccc(CNc2nc(Nc3cccc(F)c3)nc(-c3cccc(F)c3)n2)cc1 | 16 (≈ 38.2 µM) | – | 4 (≈ 9.56 µM) | 8 (≈ 19.1 µM) | 16 (≈ 38.2 µM) | – | – | – | – | – | – | – | –
NCCCCCNc1nc(Nc2cccc(F)c2)nc(-c2cccnc2)n1 | > 100 | > 100 | 8 (≈ 21.8 µM) | 16 (≈ 43.5 µM) | > 100 | – | – | – | – | – | – | – | –
C[C@@H]1[C@H](O)[C@@H](C)/C=C/C=C/C=C/C=C/C=C/C=C/C=C/[C@H](O[C@@H]2O[C@H](C)[C@@H](O)[C@H](N)[C@@H]2O)C[C@@H]2O[C@](O)(C[C@@H](O)C[C@@H](O)[C@H](O)CC[C@@H](O)C[C@@H](O)CC(=O)O[C@H]1C)C[C@H](O)[C@H]2C(=O)O [AMPHOTERICIN B] | 1 (≈ 1.08 µM) | – | – | – | – | – | – | – | – | – | – | – | –
O=C(O)c1cn(C2CC2)c2cc(N3CCNCC3)c(F)cc2c1=O [CIPROFLOXACIN] | – | – | > 16 | > 16 | – | > 16 | 1 (≈ 3.02 µM) | > 16 | > 16 | > 16 | 0.5 (≈ 1.51 µM) | > 16 | 0.12 (≈ 0.362 µM)
CN[C@@H]1[C@H](O[C@H]2[C@H](O[C@H]3[C@H](O)[C@@H](O)[C@H](N=C(N)N)[C@@H](O)[C@@H]3N=C(N)N)O[C@@H](C)[C@]2(O)C=O)O[C@@H](CO)[C@H](O)[C@H]1O.CN[C@@H]1[C@H](O[C@H]2[C@H](O[C@H]3[C@H](O)[C@@H](O)[C@H](N=C(N)N)[C@@H](O)[C@@H]3N=C(N)N)O[C@@H](C)[C@]2(O)C=O)O[C@@H](CO)[C@H](O)[C@H]1O.O=S(=O)(O)O.O=S(=O)(O)O.O=S(=O)(O)O [STREPTOMYCIN SULFATE] | – | – | > 16 | > 16 | 8 | – | – | – | – | – | – | – | –
